Source: patent US9453004B2, “Formylated xanthocillin analogues as neuroprotective agents” (NEURON BIOPHARMA, S.A., priority 2012, dated 2016)

How the values were obtained:
[1] = tested on: SK-N-MC human neuroblastoma culture cells; test: XXO-induced cell death in real time (RTCA cell index); format: cell-based; conditions: 20 hours post-treatment
Description: These cells, not exceeding 15 passages, were seeded on E-plate 16 specific for a real time assay with the RTCA system (Real-Time Cell Analyzer, […], Roche) with a cell density of 5×10^4 cells/well. After 24 hours of cell incubation at 37° C. and 5% CO2, the cell treatments for the control conditions (culture medium); XXO (10 μM xanthine/60 mU/mL xanthine oxidase); XXO plus […] or […] at 10, 40, 100, 400, 1000 or 4000 ng/ml, were performed. The cells were incubated (at 37° C. and 5% CO2) with these treatments for 72 hours, was monitored every 10 minutes. The values that are obtained are arbitrary units indicated by the cell index, calculated from the impedance data, which is a electrical parameter that establishes the relationship between the voltage and current intensity of the adhered cells which is used as a measurement of cell viability. […] The assay was performed following the same method as the one described in Example 6, testing the analogues at 40, 100, 400 or 1000 ng/ml in the presence of XXO. The cells were incubated (at 37° C. and 5% CO2) with these treatments for 72 hours, and was monitored every 10 minutes. The values that are obtained are arbitrary units indicated by cell index, calculated from the impedance data and used as a measurement of cell viability.

[2] = tested on: SK-N-MC human neuroblastoma culture cells; test: ROS measurement (H2DCFDA, normalized by LDH) in cells treated with XXO; format: cell-based
Description: Based on the preceding results, the inventors decided to evaluate the antioxidant capacity of the analogues in a cell model. The ROS measurement assay was performed on SK-N-MC human neuroblastoma culture cells, maintained as detailed in Example 2, subjected to aggression with xanthine/xanthine oxidase (XXO). The ROS measurement is taken by means of adding a permeable non-fluorescent probe in live cells (2′,7′-dichlorodihydrofluorescein diacetate, H2DCFDA; Biotium) which is oxidized by the action of ROS, generating 2′,7′-dichlorofluorescein (DCF) which can be detected in a fluorometer at 485 nm of excitation and 538 nm of emission. The fluorescence results were normalized by cell viability, measured by means of lactate dehydrogenase (LDH) activity, using the Roche Cytotoxicity Detection Kit (LDH). The results obtained with the analogues on the production of ROS are shown in FIG. 29 as the percentage of ROS corrected by LDH with respect to treatment with XXO of each analogue in a dose-response curve. A known ROS reduction control compound (C+) was used. * indicates the significant difference with respect to treatment with XXO according to the Student's t test (p<0.05).

in vitro = conditions: PAMPA; for Papp at 4 h / percentage of permeability: pig; for percentage of permeability: 4 h
Description: A mixture of lipids derived from pig brain, with a phospholipid composition very similar to the composition forming the human BBB, and referred to as PBL (Porcine Polar Brain Lipid, Avanti Polar Lipids Inc) which is prepared in microtiter plates with a MAIPNTR10 filter (Millipore), with a PVDF membrane and pore size of […], was used to mimic the blood-brain barrier. […] The percentage of barrier crossing and the effective permeability (Pe) were calculated based on the absorbance data obtained. The following formula was applied to calculate the Pe: […]

[3] = tested on: SK-N-MC human neuroblastoma culture cells; test: Camptothecin-induced apoptosis (DNA fragmentation, flow cytometry) in SK-N-MC cells; format: cell-based; conditions: CPT
Description: Based on the preceding results, the researchers decided to analyze the antiapoptotic effect of compounds NPS0155 and NPS0156. The assays were performed on two SK-N-MC human neuroblastoma culture cell lines stably transfected with constructs expressing the amyloid precursor protein (APP) gene encoding for the isoform primarily expressed in the brain, containing 695 amino acids cloned into the expression vector pcDNA3.1 (Invitrogen). One of the lines expresses the wild-type APP (APPwt) gene and the other line expresses the gene APP with the Swedish mutation (APPswe) which is a double mutation in exon 16 of the gene and produces a G to T transversion yielding the change of amino acid Lys595Asn and another A to C transversion causing the Met596Leu change, said mutation being related to the senile or hereditary forms of Alzheimer's disease. The cells were maintained as the parent cells SK-N-MC, as detailed in Example 2, using geneticin at 400 μg/ml as a selection antibiotic. To determine the effect of compounds NPS0155 and NPS0156 on apoptosis (programmed cell death), DNA fragmentation was analyzed by means of flow cytometry, produced by treatment with camptothecin (CPT) inhibiting the topoisomerase I enzyme, which impedes DNA duplication and triggers apoptotic cell death. The two cell lines, not exceeding 10 passages, were seeded on 12-well microtite plate treated for adherent cells with a cell density of 4×10^5 cells/well. After 24 hours of cell incubation at 37° C. and 5% CO2, the pre-treatment of the cells with 4 and 10 μg/mL of NPS0155 or of NPS0156 for 24 hours was performed; they were subsequently treated with 50 μM CPT for 6 hours. After treatment, the cells were collected together with their culture medium and centrifuged at 300×g for 5 minutes. The medium was removed, the cells were washed with PBS solution and were fixed for 2 minutes with 500 μL of 70% ethanol at −20° C. Once they were fixed, they were centrifuged at 400×g for 5 minutes, washed with PBS and labeled with 0.05 mg/mL of propidium iodide, diluted in cycle buffer (0.1% citrate sodium, 0.3% Nonidet P-40 and 0.02 mg/mL RNAse), and were incubated for 1 hour at 37° C. They were maintained at 4° C. for 18 hours and after this time, they were analyzed by flow cytometry, measuring propidium iodide fluorescence as DNA content distribution.
Continuing with the study, the researchers decided to analyze the antiapoptotic effect of the synthesized analogues by analyzing cellular DNA fragmentation by means of flow cytometry. The cellular fragmentation measurement assay was performed on SK-N-MC human neuroblastoma culture cells, maintained as detailed in Example 2, and subjected to an aggression with camptothecin (CPT), following the same approach as the one described in Example 8. […]

[4] = tested on: SK-N-MC cells expressing wild-type APP (APPwt); test: Camptothecin-induced apoptosis (DNA fragmentation, flow cytometry) in APPwt cells; format: cell-based, human; conditions: pre-treatment 24 hours at 4 and 10 μg/ml, then 50 μM CPT for 6 hours
Description: (§1) Based on the preceding results, the researchers decided to analyze the antiapoptotic effect of compounds NPS0155 and NPS0156. The assays were performed on two SK-N-MC human neuroblastoma culture cell lines stably transfected with constructs expressing the amyloid precursor protein (APP) gene encoding for the isoform primarily expressed in the brain, containing 695 amino acids cloned into the expression vector pcDNA3.1 (Invitrogen). One of the lines expresses the wild-type APP (APPwt) gene and the other line expresses the gene APP with the Swedish mutation (APPswe) which is a double mutation in exon 16 of the gene and produces a G to T transversion yielding the change of amino acid Lys595Asn and another A to C transversion causing the Met596Leu change, said mutation being related to the senile or hereditary forms of Alzheimer's disease. […] To determine the effect of compounds NPS0155 and NPS0156 on apoptosis (programmed cell death), DNA fragmentation was analyzed by means of flow cytometry, produced by treatment with camptothecin (CPT) inhibiting the topoisomerase I enzyme, which impedes DNA duplication and triggers apoptotic cell death. […] They were maintained at 4° C. for 18 hours and after this time, they were analyzed by flow cytometry, measuring propidium iodide fluorescence as DNA content distribution.

[5] = TEAC in vitro antioxidant capacity assay; format: biochemical
Text: Based on the preceding results, the inventors decided to evaluate in vitro antioxidant capacity of the extract, for which the TEAC assay ([…]) was used. This method is based on the formation of the ferryl-myoglobin radical produced by reacting metmyoglobin with hydrogen peroxide, followed by the oxidation of the ABTS [2,2′-azino-bis(3-ethylbenzthiazoline-6-sulfonic acid] reagent by ferryl-myoglobin, which produces the radical cation ABTS*+, which can be colorimetrically determined. In this assay, the compounds with antioxidant capacity suppress the production of the radical in a concentration-dependent manner. A standard curve with increasing concentrations of trolox (6-hydroxy-2,5,7,8-tetramethylchroman-2-carboxylic acid, hydrosoluble vitamin E analogue) is used to quantify antioxidant capacity, such that the results are indicated as a measurement of trolox equivalents (TE).
Based on the preceding results, the researchers decided to analyze the in vitro antioxidant capacity of compounds NPS0155 and NPS0156 by means of the TEAC assay, described in Example 2. A standard curve with increasing concentrations of trolox (hydrosoluble vitamin E analogue) was used to quantify antioxidant capacity, such that the results are indicated as a measurement of trolox equivalents (TE).

[6] = tested on: SK-N-MC cells expressing APP with the Swedish mutation (APPswe); test: Camptothecin-induced apoptosis (DNA fragmentation, flow cytometry) in APPswe cells; format: cell-based, human; conditions: pre-treatment 24 hours at 4 and 10 μg/ml, then 50 μM CPT for 6 hours
Description: as §1

[7] = ABTS*+ method, in vitro antioxidant capacity for lipophilic compounds; format: biochemical; conditions: for 0.1 μg of each compound
Text: Based on the preceding results, the inventors decided to evaluate the in vitro antioxidant capacity of the synthesized analogues, using an antioxidant capacity measurement assay valid for lipophilic compounds, according to the ABTS*^+ method (Samaniego et al. 2007. Analytica Chimica Acta 593: 103-107). This method is based on forming the ABTS*^+ radical cation by means of oxidation with ammonium persulfate of the ABTS reagent [2,2′-azino-bis(3-ethylbenzothiazoline-6-sulfonic acid], which can be colorimetrically determined. In this assay, the compounds with antioxidant capacity suppress the oxidation of the radical in a concentration-dependent manner. A standard curve with increasing concentrations of trolox (hydrosoluble vitamin E analogue) is used to quantify antioxidant capacity, such that the results are indicated as a measurement of trolox equivalents (TE). The results obtained for analogues NPS0158 and NPS0159 are 174±13 μM TE and 165±44 μM TE, respectively, for 0.1 μg of each compound, so they show high in vitro antioxidant capacity.

| Compound | maximum protection against death caused by XXO ([1]; at 100 ng/ml) [%] | BBB permeability (conclusion) (in vitro) | Papp at 4 h (in vitro) [×10⁻⁶ cm/s] | percentage of permeability (in vitro) [%] | protection against apoptosis caused by CPT [4] | antioxidant capacity, trolox equivalents (TE) [5] | protection against apoptosis caused by CPT [6] | maximum ROS reduction (ROS corrected by LDH, with respect to XXO) ([2]; at 100 ng/ml) [%] | maximum protection against death caused by XXO ([1]; at 1000 ng/ml) [%] | antioxidant capacity, trolox equivalents (TE) [7] [μM TE] | maximum protection against apoptosis ([3]; at 10 μg/ml) [%] | further results |
| --- | --- | --- | --- | --- | --- | --- | --- | --- | --- | --- | --- | --- |
| Cc1ccc(/C=C(NC=O)/C(=C/c2ccc(C)c(C)c2)NC=O)cc1C [NPS0161, (1Z,2Z)-1-(3,4-dimethylbenzylidene)-3-(3,4-dimethylphenyl)-2-(formylamino)-prop-2-enylformamide] | 26 | high | 14.7 | 29 |  |  |  |  |  |  |  | maximum ROS reduction (ROS corrected by LDH, with respect to XXO) ([2]; at 400 ng/ml): 45%; maximum protection against apoptosis ([3]; at 0.1 μg/ml): 35% |
| O=CNC(=C\c1ccc(O)cc1)/C(=C/c1ccc(O)c(O)c1)NC=O [NPS0155, (1Z,3Z)-1-(3,4-dihydroxyphenyl)-4-(4-hydroxyphenyl)-2,3-diformamido-1,3-butadiene] | 27 |  |  |  | Protection by NPS0155 was observed at the two tested doses | 81±19 μM TE/μg of compound | Protection by NPS0155 was observed at the two tested doses |  |  |  |  |  |
| CCOc1ccc(/C=C(NC=O)/C(=C/c2ccc(OCC)cc2)NC=O)cc1 [NPS0160, (1Z,2Z)-2-(formylamino)-1-(4-ethoxybenzylidene)-3-(4-ethoxyphenyl)prop-2-enylformamide] | 23 |  |  |  |  |  |  | 31 |  |  |  | maximum protection against apoptosis ([3]; at 1 μg/ml): 30% |
| O=CNC(=C\c1ccc(O)cc1)/C(=C/c1ccc(O)cc1)NC=O [NPS0156, (1Z,3Z)-1,4-Di(4-hydroxyphenyl)-2,3-diformamido-1,3-butadiene] | 69 |  |  |  | Protection by NPS0156 was observed at the two tested doses | 104±29 μM TE/μg of compound | Protection by NPS0156 was observed at the two tested doses |  |  |  |  |  |
| Cc1ccc(/C=C(NC=O)/C(=C/c2ccc(C)cc2)NC=O)cc1 [NPS0158, (1Z,2Z)-2-(formylamino)-1-(4-methylbenzylidene)-3-(4-methylphenyl)prop-2-enylformamide] |  | moderate | 5.19 | 13 |  |  |  | 34 | 27 | 174±13 | 28 |  |
| O=CNC(=C\c1ccc2c(c1)OCO2)/C(=C/c1ccc2c(c1)OCO2)NC=O [NPS0159, (1Z,2Z)-3-(1,3-benzodioxol-5-yl)-1-(1,3-benzodioxol-5-ylmethylen)-2-(formylamino)prop-2-enylformamide] |  |  |  |  |  |  |  | 27 | 35 | 165±44 | 23 |  |
